Experimental data reported in PubChem BioAssay AID256 (DTP/NCI, 2004).
Values joined by “and” are separate entries in the source; they are usually repeats but may differ in a detail not shown here. Equal values may be shown once. Toxic doses and inconclusive results are not listed. How the source made its calls: active means survival T/C of 150% or more; inactive means T/C below 125% in these data.

System: CD2F1 mice, L1210 leukemia ip, survival T/C
Assay: NCI In Vivo Anticancer Drug Screen. Data for tumor model L1210 Leukemia (intraperitoneal) in CD2F1 (CDF1) mice
Conditions: endpoint: mean survival time, higher = longer survival
Description: The antitumor activity of compounds was measured in mice bearing transplantable tumors. Survival or tumor size were measured and the results are expressed as the measurement made in the treated group (T) divided by the measurement made in the vehicle treated control group (C). The tumor model used in this assay is L1210 Leukemia (intraperitoneal) in CD2F1 (CDF1) mice

[1] = dose: 100.0 mg/kg/injection, schedule: Q01DX009 (ip), vehicle: saline with Tween-80
[2] = dose: 100.0 mg/kg/injection, schedule: Q04DX003 (ip), vehicle: saline with Tween-80
[3] = dose: 200.0 mg/kg/injection, schedule: Q01DX009 (ip), vehicle: saline with Tween-80
[4] = dose: 200.0 mg/kg/injection, schedule: Q04DX003 (ip), vehicle: saline with Tween-80
[5] = dose: 400.0 mg/kg/injection, schedule: Q01DX009 (ip), vehicle: saline with Tween-80
[6] = dose: 400.0 mg/kg/injection, schedule: Q04DX003 (ip), vehicle: saline with Tween-80
[7] = dose: 100.0 mg/kg/injection, schedule: Q04DX002 (ip), vehicle: saline with Tween-80
[8] = dose: 400.0 mg/kg/injection, schedule: Q04DX002 (ip), vehicle: saline with Tween-80
[9] = dose: 100.0 mg/kg/injection, schedule: Q01DX009 (ip), vehicle: saline
[10] = dose: 6.25 mg/kg/injection, schedule: Q01DX009 (ip), vehicle: saline with Tween-80
[11] = dose: 25.0 mg/kg/injection, schedule: Q01DX009 (ip), vehicle: saline with Tween-80

Measured: T/C

CC12C=C(C(=O)c3ccccc3)C(CC1)C2(C)C (stereo not given)
inactive: [1] 95 % of control | [2] 96 % of control | [3] 97 % of control | [4] 93 % of control | [5] 97 % of control | [6] 91 % of control

CCCC1([N+](=O)[O-])c2ccccc2-c2ccc([N+](=O)[O-])cc21 (stereo not given)
inactive: dose: 100.0 mg/kg/injection, schedule: Q01DX001 (ip), vehicle: saline 98 % of control | dose: 200.0 mg/kg/injection, schedule: Q01DX001 (ip), vehicle: saline 96 % of control | dose: 400.0 mg/kg/injection, schedule: Q01DX001 (ip), vehicle: saline 92 % of control

CN(C)C(=O)Nc1nc2ccccc2s1
inactive: dose: 25.0 mg/kg/injection, schedule: Q04DX002 (ip), vehicle: saline with Tween-80 103 % of control | dose: 50.0 mg/kg/injection, schedule: Q04DX002 (ip), vehicle: saline with Tween-80 95 % of control | [7] 115 % of control and 93 % of control | [8] 90 % of control

N#CCCCN1CCOCC1
inactive: [9] 101 % of control | dose: 200.0 mg/kg/injection, schedule: Q01DX009 (ip), vehicle: saline 102 % of control | dose: 400.0 mg/kg/injection, schedule: Q01DX009 (ip), vehicle: saline 98 % of control

O=C(COc1ccccc1)NCc1ccc(Cl)cc1
inactive: [2] 98 % of control | [4] 98 % of control | [6] 96 % of control

CCCCCCCC(=O)Nc1ccc(CC)cc1
inactive: [1] 107 % of control | [2] 95 % of control | [3] 105 % of control | [4] 103 % of control | [5] 107 % of control | [6] 93 % of control

C=CCC(C(=O)OC)(C(=O)OC)c1ccc(OC)c(OC)c1
inactive: dose: 75.0 mg/kg/injection, schedule: Q01DX001 (ip), vehicle: saline 100 % of control | dose: 150.0 mg/kg/injection, schedule: Q01DX001 (ip), vehicle: saline 96 % of control | dose: 300.0 mg/kg/injection, schedule: Q01DX001 (ip), vehicle: saline 98 % of control

CCCCNCCC(SSSC(CCNCCCC)c1ccc(Cl)cc1)c1ccc(Cl)cc1 (stereo not given)
inactive: [10] 101 % of control | dose: 12.5 mg/kg/injection, schedule: Q01DX009 (ip), vehicle: saline with Tween-80 95 % of control | [11] 95 % of control

CC1=C(C)C(=O)O[C@@H]([C@](C)(O)[C@]2(O)CC[C@@]3(O)[C@@H]4C[C@H]5O[C@]56CC=CC(=O)[C@]6(C)[C@H]4CC[C@]23C)C1
inactive: dose: 3.12 mg/kg/injection, schedule: Q01DX009 (ip), vehicle: saline with Tween-80 104 % of control | dose: 3.12 mg/kg/injection, schedule: Q01DX009 (ip), vehicle: saline 112 % of control | [10] 105 % of control | dose: 6.25 mg/kg/injection, schedule: Q01DX009 (ip), vehicle: saline 123 % of control | dose: 12.5 mg/kg/injection, schedule: Q01DX009 (ip), vehicle: saline 112 % of control | [11] 107 % of control | dose: 25.0 mg/kg/injection, schedule: Q01DX009 (ip), vehicle: saline 110 % of control | dose: 50.0 mg/kg/injection, schedule: Q01DX009 (ip), vehicle: saline with Tween-80 115 % of control | dose: 50.0 mg/kg/injection, schedule: Q01DX009 (ip), vehicle: saline 98 % of control | [1] 107 % of control | [9] 93 % of control

O=[N+]([O-])c1cccc(Cc2nc3ccccc3nc2-c2ccccc2)c1
inactive: dose: 100.0 mg/kg/injection, schedule: Q01DX001 (ip), vehicle: saline with Tween-80 94 % of control | dose: 400.0 mg/kg/injection, schedule: Q01DX001 (ip), vehicle: saline with Tween-80 91 % of control

Cc1cc(S(=O)(=O)F)cc(Cl)c1SC(=O)N(C)C
inactive: [7] 91 % of control | dose: 200.0 mg/kg/injection, schedule: Q04DX002 (ip), vehicle: saline with Tween-80 95 % of control | [8] 91 % of control

C=CCS(=O)(=O)Cc1cccc([N+](=O)[O-])c1
inactive: dose: 100.0 mg/kg/injection, schedule: Q04DX002 (ip), vehicle: Klucel (hydroxypropylcellulose) (HPC) 103 % of control | dose: 200.0 mg/kg/injection, schedule: Q04DX002 (ip), vehicle: Klucel (hydroxypropylcellulose) (HPC) 94 % of control | dose: 400.0 mg/kg/injection, schedule: Q04DX002 (ip), vehicle: Klucel (hydroxypropylcellulose) (HPC) 90 % of control
